Legend:
Format in all cases: in vivo
[1] = tested on: redroot pigweed (Amaranthus retroflexus, AMARE); assay: Pre-emerge test, greenhouse herbicide activity screening; details: rating scale 0-100, 14 days after application
Procedure, shortened: (§1)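 Compounds in acetone were track-sprayed at 15-1000 g ai/ha (187 l/ha) on sandy loam pots: pre-emerge one day after seeding, post-emerge at 2-3 leaf stage with 0.25% v/v non-ionic surfactant. Phytotoxicity was rated 14 days later on a 0 (no damage) to 100 (complete death) scale.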

[2] = tested on: upland rice (Oryza sp., var. Tebonnet, RICE); assay: Post-emerge test, crop safety; details: rating scale 0-100 (0 no damage, 100 complete death), 14 days after application
Procedure, shortened: as §1

[3] = tested on: field corn (Zea mays L., var. Dekalb 535, CORN); assay: Post-emerge test, crop safety; details: rating scale 0-100 (0 no damage, 100 complete death), 14 days after application
Procedure, shortened: as §1

[4] = tested on: velvetleaf (Abutilon theophrasti, ABUTH); assay: Pre-emerge test, greenhouse herbicide activity screening; details: rating scale 0-100, 14 days after application
Procedure, shortened: as §1

[5] = tested on: barnyardgrass (Echinochloa crus-galli, ECHCG); assay: as above; details: rating scale 0-100, 14 days after application
Procedure, shortened: as §1

[6] = tested on: green foxtail (Setaria viridis, SETVI); assay: as above; details: rating scale 0-100, 14 days after application
Procedure, shortened: as §1

[7] = tested on: large crabgrass (Digitaria sanguinalis, DIGSA); assay: as above; details: rating scale 0-100, 14 days after application
Procedure, shortened: as §1

[8] = tested on: lambsquarters (Chenopodium album, CHEAL); assay: as above; details: rating scale 0-100, 14 days after application
Procedure, shortened: as §1

[9] = tested on: johnsongrass (Sorghum halepense, SORHA); assay: as above; details: rating scale 0-100, 14 days after application
Procedure, shortened: as §1

[10] = tested on: sicklepod (Cassia obtusifolia, CASOB); assay: as above; details: rating scale 0-100, 14 days after application
Procedure, shortened: as §1

[11] = tested on: ivyleaf morningglory (Ipomoea hederacea, IPOHE); assay: as above; details: rating scale 0-100, 14 days after application
Procedure, shortened: as §1

[12] = tested on: upland rice (Oryza sp., var. Tebonnet, RICE); assay: Pre-emerge test, crop safety; details: rating scale 0-100, 14 days after application
Procedure, shortened: (§2)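 Fourteen days after spraying, crop and weed injury was graded visually from 0, no effect, to 100, every plant dead. Test substances were dissolved in acetone and applied at 15–1000 g ai/ha with a flat-fan nozzle. Application was either pre-emergence, one day after sowing, or post-emergence at the 2–3 leaf stage.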

[13] = tested on: field corn (Zea mays L., var. Dekalb 535, CORN); assay: Pre-emerge test, crop safety; details: rating scale 0-100, 14 days after application
Procedure, shortened: as §2

[14] = tested on: velvetleaf (Abutilon theophrasti, ABUTH); assay: Post-emerge test, greenhouse herbicide activity screening; details: rating scale 0-100 (0 no damage, 100 complete death), 14 days after application
Procedure, shortened: (§3)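 Visual ratings on a 0-100 scale (0 no damage, 100 all plants dead) were taken at 14 days after treatment. Rates of 15-1000 g ai/ha in acetone, 187 l/ha, were sprayed onto soil one day after planting (pre-emerge) or onto 2-3 leaf plants with 0.25% v/v surfactant (post-emerge).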

[15] = tested on: barnyardgrass (Echinochloa crus-galli, ECHCG); assay: as above; details: rating scale 0-100 (0 no damage, 100 complete death), 14 days after application
Procedure, shortened: as §3

[16] = tested on: green foxtail (Setaria viridis, SETVI); assay: as above; details: rating scale 0-100 (0 no damage, 100 complete death), 14 days after application
Procedure, shortened: as §3

[17] = tested on: large crabgrass (Digitaria sanguinalis, DIGSA); assay: as above; details: rating scale 0-100 (0 no damage, 100 complete death), 14 days after application
Procedure, shortened: as §3

[18] = tested on: redroot pigweed (Amaranthus retroflexus, AMARE); assay: as above; details: rating scale 0-100 (0 no damage, 100 complete death), 14 days after application
Procedure, shortened: as §3

[19] = tested on: lambsquarters (Chenopodium album, CHEAL); assay: as above; details: rating scale 0-100 (0 no damage, 100 complete death), 14 days after application
Procedure, shortened: as §3

[20] = tested on: johnsongrass (Sorghum halepense, SORHA); assay: as above; details: rating scale 0-100 (0 no damage, 100 complete death), 14 days after application
Procedure, shortened: as §3

[21] = tested on: sicklepod (Cassia obtusifolia, CASOB); assay: as above; details: rating scale 0-100 (0 no damage, 100 complete death), 14 days after application
Procedure, shortened: as §3

[22] = tested on: ivyleaf morningglory (Ipomoea hederacea, IPOHE); assay: as above; details: rating scale 0-100 (0 no damage, 100 complete death), 14 days after application
Procedure, shortened: as §3

[23] = tested on: common ragweed (Ambrosia artemisizfolia L., AMBEL); assay: as above; details: rating scale 0-100 (0 no damage, 100 complete death), 14 days after application
Procedure, shortened: as §3

CCCOC(=O)C(C)(Cl)Cc1c(OC)c(Cl)cc(F)c1-n1c(=O)cc(C(F)(F)F)n(C)c1=O (stereo not shown) [14-35]
Pre-emerge herbicidal activity, phytotoxicity rating AMARE ([1]; 63 g ai/ha): 100
Pre-emerge herbicidal activity, phytotoxicity rating AMARE ([1]; 250 g ai/ha): 100
Post-emerge phytotoxicity rating RICE (crop damage) ([2]; Rate 63 g ai/ha): 80
Post-emerge phytotoxicity rating RICE (crop damage) ([2]; Rate 250 g ai/ha): 100
Post-emerge phytotoxicity rating CORN (crop damage) ([3]; Rate 63 g ai/ha): 100
Post-emerge phytotoxicity rating CORN (crop damage) ([3]; Rate 250 g ai/ha): 100
Pre-emerge herbicidal activity, phytotoxicity rating ABUTH ([4]; 63 g ai/ha): 100
Pre-emerge herbicidal activity, phytotoxicity rating ABUTH ([4]; 250 g ai/ha): 100
Pre-emerge herbicidal activity, phytotoxicity rating ECHCG ([5]; 63 g ai/ha): 0
Pre-emerge herbicidal activity, phytotoxicity rating ECHCG ([5]; 250 g ai/ha): 99
Pre-emerge herbicidal activity, phytotoxicity rating SETVI ([6]; 63 g ai/ha): 80
Pre-emerge herbicidal activity, phytotoxicity rating SETVI ([6]; 250 g ai/ha): 100
Pre-emerge herbicidal activity, phytotoxicity rating DIGSA ([7]; 63 g ai/ha): 50
Pre-emerge herbicidal activity, phytotoxicity rating DIGSA ([7]; 250 g ai/ha): 95
Pre-emerge herbicidal activity, phytotoxicity rating CHEAL ([8]; 63 g ai/ha): 50
Pre-emerge herbicidal activity, phytotoxicity rating CHEAL ([8]; 250 g ai/ha): 100
Pre-emerge herbicidal activity, phytotoxicity rating SORHA ([9]; 63 g ai/ha): 0
Pre-emerge herbicidal activity, phytotoxicity rating SORHA ([9]; 250 g ai/ha): 50
Pre-emerge herbicidal activity, phytotoxicity rating CASOB ([10]; 63 g ai/ha): 0
Pre-emerge herbicidal activity, phytotoxicity rating CASOB ([10]; 250 g ai/ha): 0
Pre-emerge herbicidal activity, phytotoxicity rating IPOHE ([11]; 63 g ai/ha): 0
Pre-emerge herbicidal activity, phytotoxicity rating IPOHE ([11]; 250 g ai/ha): 0
Pre-emerge phytotoxicity rating, crop damage RICE ([12]; 63 g ai/ha): 0
Pre-emerge phytotoxicity rating, crop damage RICE ([12]; 250 g ai/ha): 10
Pre-emerge phytotoxicity rating, crop damage CORN ([13]; 63 g ai/ha): 0
Pre-emerge phytotoxicity rating, crop damage CORN ([13]; 250 g ai/ha): 25
Post-emerge Herbicidal Activity, phytotoxicity rating ABUTH ([14]; Rate 63 g ai/ha): 95
Post-emerge Herbicidal Activity, phytotoxicity rating ABUTH ([14]; Rate 250 g ai/ha): 100
Post-emerge Herbicidal Activity, phytotoxicity rating ECHCG ([15]; Rate 63 g ai/ha): 100
Post-emerge Herbicidal Activity, phytotoxicity rating ECHCG ([15]; Rate 250 g ai/ha): 100
Post-emerge Herbicidal Activity, phytotoxicity rating SETVI ([16]; Rate 63 g ai/ha): 50
Post-emerge Herbicidal Activity, phytotoxicity rating SETVI ([16]; Rate 250 g ai/ha): 95
Post-emerge Herbicidal Activity, phytotoxicity rating DIGSA ([17]; Rate 63 g ai/ha): 50
Post-emerge Herbicidal Activity, phytotoxicity rating DIGSA ([17]; Rate 250 g ai/ha): 95
Post-emerge Herbicidal Activity, phytotoxicity rating AMARE ([18]; Rate 63 g ai/ha): 100
Post-emerge Herbicidal Activity, phytotoxicity rating AMARE ([18]; Rate 250 g ai/ha): 100
Post-emerge Herbicidal Activity, phytotoxicity rating CHEAL ([19]; Rate 63 g ai/ha): 100
Post-emerge Herbicidal Activity, phytotoxicity rating CHEAL ([19]; Rate 250 g ai/ha): 100
Post-emerge Herbicidal Activity, phytotoxicity rating SORHA ([20]; Rate 63 g ai/ha): 30
Post-emerge Herbicidal Activity, phytotoxicity rating SORHA ([20]; Rate 250 g ai/ha): 70
Post-emerge Herbicidal Activity, phytotoxicity rating CASOB ([21]; Rate 63 g ai/ha): 0
Post-emerge Herbicidal Activity, phytotoxicity rating CASOB ([21]; Rate 250 g ai/ha): 90
Post-emerge Herbicidal Activity, phytotoxicity rating IPOHE ([22]; Rate 63 g ai/ha): 70
Post-emerge Herbicidal Activity, phytotoxicity rating IPOHE ([22]; Rate 250 g ai/ha): 100
Post-emerge Herbicidal Activity, phytotoxicity rating AMBEL ([23]; Rate 63 g ai/ha): 100
Post-emerge Herbicidal Activity, phytotoxicity rating AMBEL ([23]; Rate 250 g ai/ha): 100

— patent publication US6355799B1, “Substituted benzene compounds, process for their preparation, and herbicidal and defoliant compositions containing them” (ISK Americas Incorporated, priority 1997, dated 2002)
